For one data set, the target named is T1, NRP1 b1 domain (Homo sapiens, UniProt O14786).
T1 construct: with the purified recombinant NRP1 b1 domain immobilized on the chip; inferred from Ni-NTA capture), TEV-cleavable (cleaved yes); made in house; host or cells: E. coli Rosetta (DE3)
T1 sequence (O14786 275-424 limits assumed): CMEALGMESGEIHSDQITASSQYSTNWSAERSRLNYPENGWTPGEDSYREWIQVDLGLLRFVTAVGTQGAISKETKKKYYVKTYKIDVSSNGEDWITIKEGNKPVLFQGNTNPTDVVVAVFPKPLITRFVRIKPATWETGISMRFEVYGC
Nature of the data set: SPR binding to immobilized NRP1 b1 domain (Biacore 4000, CM5 chip). The note with it: steady-state binding, 25 °C; mean ± SD; read-out: SPR NRP1 b1 domain equilibrium KD. How it is done:
Surface Plasmon Resonance experiments were performed using a Biacore 4000 instrument at a constant temperature of 25 °C. Sensor chips, buffer stock solutions, and immobilization reagents were purchased from GE Healthcare. Recombinant human NRP1-b1 was produced in-house and recombinant human NRP1-ECD (extracellular domain) was purchased from ACRO (catalogue number NR1-H5A228). All other reagents were obtained from Sigma.
PBS containing 0.05% surfactant P20 was used as the running buffer during immobilization. NRP1-b1 was immobilized onto a CM5 chip using random amine coupling. The four flow cells were treated in the same way to optimize throughput. In summary, spots 1 and 2 were activated with the coupling reagents EDC and NHS for 10 min. NRP1-b1 at a concentration of 20 μg/mL in 10 mM sodium acetate pH 5 was injected onto the surface for 10 and 5 min in spots 1 and 2, respectively to generate surfaces with high and low density. […] The unmodified spot 3 was used as a reference.
PBS buffer containing 0.05% surfactant P20 and 3% DMSO was used as the running buffer and sample dilution buffer throughout these experiments. Dose–responses were obtained using a 2-fold sample dilution from 16 μM to 31 nM, using an injection time of 60 s. Surface regeneration between injections was not necessary, but a wash step with 1 M NaCl was included after injection of the highest concentration sample for each compound.
Binding curves were corrected for variations in DMSO concentration and normalized by molecular weight. Binding results to high and low-density surfaces were processed independently and the average ± SD is presented. K Ds reported are derived from steady-state binding responses and therefore correspond to the equilibrium binding affinity of the compounds.
Background: Surface plasmon resonance follows binding to a sensor surface in real time, without labels.

Data set [1] has as its system VEGFA-induced mechanical allodynia in rats. The data set is described as follows: VEGFA-induced mechanical allodynia (von Frey), intraplantar injection. In kind it is in vivo, rat. How it is done: (§1) The procedure was performed as reported previously. Briefly, rats were gently restrained in a fabric cloth and given an intraplantar injection in the hind-paw containing VEGFA165 (10 nM) and compound (EG00229 or 12h, at 30 or 10 μM) alone or in combination in 50 μL of PBS vehicle (NaCl 137 mM, KCl 2.5 mM, Na2HPO4 10 mM, and KH2PO4 1.8 mM), using a 31G needle.

The conditions of data set [2]: for comparison; no reference given; cited from earlier work.
The test system of data set [3] is total Na+ currents in rat DRG neurons. The data set is described as follows: Whole-cell patch-clamp of Na+ currents in dissociated DRG neurons. It is filed as cell-based. The note with it: for V 1/2 activation, total Na+ / V 1/2 inactivation, total Na+: mean ± SEM (n cells).
Experimental: Recordings were obtained from acutely dissociated DRG neurons obtained from female rats as described earlier. Patch-clamp recordings were performed at room temperature (22–24 °C). Currents were recorded using an EPC 10 Amplifier-HEKA (HEKA Elektronik, Ludwigshafen, Germany) linked to a computer with Patchmaster software.
To determine the effect of VEGFA application on voltage-gated sodium currents, we incubated DRG neurons for 30 min with recombinant rat VEGFA, 1 nM (Cat#P4853, Abnova, Taipei, Taiwan) before whole-cell patch-clamp recordings. […] For the control condition, DRG neurons were incubated for 30 min with DMSO at a final concentration of 0.1%.
For Na^+ current (I Na+) recordings, the external solution contained (in mM): 130 NaCl, 3 KCl, 30 tetraethylammonium chloride, 1 CaCl2, 0.5 CdCl2, 1 MgCl2, 10 D-glucose and 10 HEPES (pH 7.3 adjusted with NaOH, and mOsm/L = 315). Patch pipettes were filled with an internal solution containing (in mM): 140 CsF, 1.1Cs-EGTA, 10 NaCl, and 15 HEPES (pH 7.3 adjusted with CsOH, and mOsm/L = 300). Peak Na^+ current was acquired by applying 150 ms voltage steps from – 70 to +60 mV in 5-mV increments from a holding potential of – 60 mV to obtain the current–voltage (I–V) relation.
Normalization of currents to each cell’s capacitance (pF) was performed to allow for collection of current density data. For I–V curves, functions were fitted to data using a nonlinear least-squares analysis. I–V curves were fitted using double Boltzmann functions: f=a+g1/(1+exp((x−V1/21)/k1))+g2/(1+exp(−(x−V1/22)/k2)) where x is the membrane potential, V 1/2 is the midpoint potential and k is the corresponding slope factor for single Boltzmann functions. Double Boltzmann fits were used to describe the shape of the curve, not to imply the existence of separate channel populations. Numbers 1 and 2 simply indicate first and second midpoints; a along with g are fitting parameters.
Activation curves were obtained from the I–V curves by dividing the peak current at each depolarizing step by the driving force according to the equation: G = I/(V mem – E rev), where I is the peak current, V mem is the membrane potential and E rev is the reversal potential. The conductance (G) was normalized against the maximum conductance (G max). Steady-state inactivation (SSI) curves were obtained by applying an H-infinity protocol that consisted of 1-s conditioning prepulses from −120 to +10 mV in 10-mV increments followed by a 200 ms test pulse to +10 mV. Inactivation curves were obtained by dividing the peak current recorded at the test pulse by the maximum current (I max). Activation and SSI curves were fitted with the Boltzmann equation.
In data set [4] the test system is T180/Y182 phosphorylated p38 (P-p38) in retinal endothelium. The data set is described as follows: VEGFA-induced p38 phosphorylation in ex vivo mouse retina (immunostaining). It is filed as cell-based. How it is done: Retinae from C57Bl/6J mice were fixed in 4% formaldehyde in PBS for 1 h and washed three times with PBS. After 1 h in blocking buffer (3% Triton X-100, 1%1% Tween and 0.5% BSA in 2× PBS), retinae were immunostained by incubation with rabbit anti-P-p38 MAPK (Thr180/Tyr182) antibody (Cell Signaling) and biotin-conjugated Isolectin B4 (IB4, Merck) overnight at 4 °C, followed by Alexa Fluor 555–conjugated goat antirabbit antibodies (Invitrogen) and Alexa Fluor 488-conjugated streptavidin (Invitrogen) respectively for 1 h at rt. Images were acquired with a Zeiss Axioskop 2 microscope, using a ph3 Plan-Apochromat 63×/1.40 oil objective, Hamamatsu camera and the HCImage software. Each image was acquired as an RGB color image and then processed with ImageJ software version 1.52a (NIH Bethesda). Channels were split to separate the IB4 staining (green channel) from the P-p38 staining (red channel). The threshold function was used on the IB4 image to determine the area of the vessels and to generate a mask that was restored in the red channel image to measure the area of the vessels positive to P-p38 staining. The P-p38 staining area was normalized against the area stained with IB4. Three retinae from three different mice per condition were used for analysis. One-way ANOVA was used to compare the different treatments.

For data set [5], the system named is VEGFA-induced aversion to mechanical stimuli in rats. Nature of the data set: Conditioned place aversion (CPA) to 10 g vF stimulation after VEGFA. It is filed as in vivo, rat. How it is done:
as §1
The experiments were conducted in a two-chamber device based on the protocols from and as previously described. The protocol includes 4 × 10 min of sequential tests of preconditioning (10 min), conditioning (2 × 10 min) and testing (10 min). During preconditioning, the animal is allowed free access to two connected chambers (30 × 30 × 19 cm), each associated with a scented lip-balm applied to the walls. Immediately following preconditioning, a divider was applied between the chambers, and the rats were conditioned to either stimuli or no-stimuli for 10 min in each chamber. The stimuli consisted of repeated stimulation with a 10 g VF-filament every 30 s for the 10 min that the subject was contained in that chamber, while no stimuli (NS) was applied in the other chamber. The order and side of conditioning was alternated between subjects. Following the conditioning, the divider was removed, and the rat was allowed free access to both chambers for the 10 min test. Animal movements in each chamber were recorded by a camera above, and the duration of time spent in each chamber was recorded during preconditioning and test phase. Decreased time spent in a chamber during the test versus preconditioning indicated avoidance for that chamber and was calculated as a CPA-score: time in VF-chamber during preconditioning – time in VF-chamber during test.

For data set [6], the system named is P-p38 in human brain endothelial cell line hCMEC/D3. The data set is described as follows: p38 phosphorylation in hCMEC/D3 cells (immunoblotting). It is filed as cell-based. As to the method:
Cell lysates of the human brain endothelial cell line hCMEC/D3 were prepared in RIPA buffer containing 0.1% SDS, protease inhibitor cocktail 2 and phosphatase inhibitor cocktail (Sigma-Aldrich). Proteins were separated by SDS-PAGE and transferred to nitrocellulose by wet electrotransfer. Membranes were blocked with 5% milk in Tris-buffered saline (TBS) overnight at 4 °C and then incubated with the appropriate primary antibody diluted in TBS containing 0.1% Tween-20 and 1% BSA for 2 h and 30 min at rt; the primary antibodies used were specific for phospho P-p38, p38 (1:1000; Cell Signaling Technology) and GADPH (1:10000; Merck). Membranes were washed with 0.1% Tween-20 in TBS and then incubated with goat antimouse or goat antirabbit horseradish peroxidase (HRP)-conjugated IgG (GE Healthcare) diluted 1:10,000 or 1:5000, respectively, with 0.1% Tween-20, 1% BSA in PBS. Membranes were developed using the ECL reagents (Roche) and images were acquired with the Bio-Rad ChemiDoc MP Imaging System and the Bio-Rad Image Lab software (version 6.0.1). Protein bands were quantified using ImageJ software version 1.52a (NIH Bethesda), whereby signal intensity was normalized to signal intensity from GADPH from the same sample as a loading control. Phosphorylation levels were normalized against the total levels of p38. Densitometric quantification of three independent immunoblots was determined by changes in protein or phosphoprotein content normalized to GADPH total protein loading controls, with values expressed as fold increase. Data are shown as mean ± SD. Statistical analysis included one-way ANOVA with significance levels set at 0.05, followed by posthoc Dunnett’s tests.
For orientation: Immunoblotting shows a protein as a band on a membrane.

Setting [7] is: 30 μM, 15 min prior to VEGFA165 stimulation.

“Also recorded” adds a separate entry of the source. Marks after values point to notes of the source that are not given here.

In general, Kd refers to the constant that tells how readily two partners part at equilibrium. As a reminder, the half-life is how long it takes for the measured level to halve.

`NC(N)=NCCCC(NC(=O)c1sccc1NS(=O)(=O)c1cccc2nsnc12)C(=O)O` (centres unmarked) [EG00229, reference compound]: at NRP1 b1 domain, the Kd was 2710 ± 130 nM. The “effect on VEGFA-induced mechanical allodynia” value in data set [1] (10 μM coinjected with VEGFA, male rats) was “produced significant antinociceptive effects”. Also, in data set [1] (30 μM coinjected with VEGFA165 10 nM, 50 μL intraplantar, male and female rats), the “effect on VEGFA-induced mechanical allodynia (paw withdrawal threshold, AUC 0-6 h)” value is “comparable antinociceptive effects in males and females”. Further, the half-life in data set [2] was 34.8 min. For the same compound, the “effect on Na+ currents, alone” value in data set [3] (30 μM alone, 30 min) is given as “Neither EG00229 nor 12h alone had any obvious effect”. Besides, the “effect on VEGFA-induced increase in Na+ currents and current density” value in data set [3] (30 μM, then VEGFA165 1 nM 30 min, small-sized DRG neurons) was “equally reduced”. For the same compound, the “V 1/2 activation, total Na+” value was “–16.384 ± 0.773 (15) ^b mV” in data set [3] (compound 30 μM + VEGFA) and “–15.229 ± 0.972 (10) ^b mV” in data set [3] (compound alone, 30 μM). Moreover, the “V 1/2 inactivation, total Na+” value in data set [3] (compound 30 μM + VEGFA) is reported as “–49.707 ± 2.554 (15) mV”; in data set [3] (compound alone, 30 μM), “–49.108 ± 2.415 (10) mV”. Also, the “p38 phosphorylation when added alone” value in data set [4] (30 μM alone, 5 min) was “induced p38 phosphorylation”; in data set [6] (30 μM alone, 5 min), “induced p38 kinase phosphorylation”. Also, in data set [4] (setting [7]), the “effect on VEGFA-induced p38 phosphorylation in retinal endothelium” value is listed as “prevented VEGFA-induced p38 phosphorylation”. Besides, the “effect on VEGFA-induced aversion in CPA-paradigm” value in data set [5] (10 μM, male rats) is given as “had no effect”. In addition, the “VEGFA-induced aversion (time in vF-conditioned chamber)” value in data set [5] (30 μM coinjected with VEGFA 10 nM, male and female rats) is listed as “prevented the stimulus-aversion from VEGFA in both sexes; also recorded: the aversion was prevented”. Besides, in data set [5] (30 μM, female rats), the “CPA-score vs VEGFA/vehicle” value was “showed a significant effect”. Moreover, in data set [6] (setting [7]), the “effect on VEGFA-induced p38 phosphorylation” value is on record as “prevented VEGFA-induced p38 phosphorylation”.

(Values after article PMC12624434 (ACS Pharmacology & Translational Science, 2025).)
